Assay results as given in ChEMBL document CHEMBL3621113, “Strategies for the Discovery of Target-Specific or Isoform-Selective Modulators” (J Med Chem, 2015).

Legend:
[1] = target: T1, Amine oxidase [flavin-containing] A (Homo sapiens, UniProt P21397)
T1 sequence (P21397 whole entry): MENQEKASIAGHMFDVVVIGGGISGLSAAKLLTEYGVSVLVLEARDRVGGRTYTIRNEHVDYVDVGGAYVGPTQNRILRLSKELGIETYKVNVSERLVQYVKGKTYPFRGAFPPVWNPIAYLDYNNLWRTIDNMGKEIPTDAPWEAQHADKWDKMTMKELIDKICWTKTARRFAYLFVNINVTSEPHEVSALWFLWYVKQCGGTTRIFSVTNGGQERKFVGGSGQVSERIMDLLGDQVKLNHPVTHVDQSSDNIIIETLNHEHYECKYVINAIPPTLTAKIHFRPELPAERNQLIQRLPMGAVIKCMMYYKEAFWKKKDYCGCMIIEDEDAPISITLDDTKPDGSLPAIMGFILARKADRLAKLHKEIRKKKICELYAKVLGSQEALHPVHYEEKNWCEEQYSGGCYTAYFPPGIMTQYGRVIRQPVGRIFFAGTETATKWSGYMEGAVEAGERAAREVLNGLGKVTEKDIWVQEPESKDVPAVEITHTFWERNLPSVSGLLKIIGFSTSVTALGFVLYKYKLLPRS
Description: Inhibition of human MAO-A using (4S)-4,5-dihydro-2-(6-hydroxybenzothiazolyl)-4-thiazolecarboxylic acid as substrate after 60 mins by MAO-Glo assay

[2] = target: T2, Amine oxidase [flavin-containing] B (Homo sapiens, UniProt P27338)
T2 sequence (P27338 whole entry): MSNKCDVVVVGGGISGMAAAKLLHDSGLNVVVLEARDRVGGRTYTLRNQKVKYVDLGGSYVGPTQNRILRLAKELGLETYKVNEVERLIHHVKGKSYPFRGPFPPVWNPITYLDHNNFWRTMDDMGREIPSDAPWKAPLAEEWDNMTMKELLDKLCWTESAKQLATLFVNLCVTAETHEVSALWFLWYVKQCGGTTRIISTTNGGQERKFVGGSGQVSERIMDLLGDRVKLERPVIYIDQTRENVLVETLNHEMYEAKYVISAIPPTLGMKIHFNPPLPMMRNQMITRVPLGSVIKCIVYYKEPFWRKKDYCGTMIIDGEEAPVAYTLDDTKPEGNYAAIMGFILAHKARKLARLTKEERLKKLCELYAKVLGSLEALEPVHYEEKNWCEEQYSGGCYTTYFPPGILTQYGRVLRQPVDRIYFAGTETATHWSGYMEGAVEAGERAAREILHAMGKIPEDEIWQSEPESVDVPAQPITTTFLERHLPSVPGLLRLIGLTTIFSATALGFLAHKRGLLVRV
Description: Inhibition of human MAO-B using (4S)-4,5-dihydro-2-(6-hydroxybenzothiazolyl)-4-thiazolecarboxylic acid as substrate after 60 mins by MAO-Glo assay

[3] = target: T1, Amine oxidase [flavin-containing] A; assay: Inhibition of MAO-A (unknown origin)
[4] = target: T3, Tyrosine-protein kinase JAK3 (Homo sapiens, UniProt P52333); assay: Inhibition of JAK3 (unknown origin) after 20 mins by radiometric analysis in presence of [gamma33P]-ATP
T3 sequence (P52333 whole entry): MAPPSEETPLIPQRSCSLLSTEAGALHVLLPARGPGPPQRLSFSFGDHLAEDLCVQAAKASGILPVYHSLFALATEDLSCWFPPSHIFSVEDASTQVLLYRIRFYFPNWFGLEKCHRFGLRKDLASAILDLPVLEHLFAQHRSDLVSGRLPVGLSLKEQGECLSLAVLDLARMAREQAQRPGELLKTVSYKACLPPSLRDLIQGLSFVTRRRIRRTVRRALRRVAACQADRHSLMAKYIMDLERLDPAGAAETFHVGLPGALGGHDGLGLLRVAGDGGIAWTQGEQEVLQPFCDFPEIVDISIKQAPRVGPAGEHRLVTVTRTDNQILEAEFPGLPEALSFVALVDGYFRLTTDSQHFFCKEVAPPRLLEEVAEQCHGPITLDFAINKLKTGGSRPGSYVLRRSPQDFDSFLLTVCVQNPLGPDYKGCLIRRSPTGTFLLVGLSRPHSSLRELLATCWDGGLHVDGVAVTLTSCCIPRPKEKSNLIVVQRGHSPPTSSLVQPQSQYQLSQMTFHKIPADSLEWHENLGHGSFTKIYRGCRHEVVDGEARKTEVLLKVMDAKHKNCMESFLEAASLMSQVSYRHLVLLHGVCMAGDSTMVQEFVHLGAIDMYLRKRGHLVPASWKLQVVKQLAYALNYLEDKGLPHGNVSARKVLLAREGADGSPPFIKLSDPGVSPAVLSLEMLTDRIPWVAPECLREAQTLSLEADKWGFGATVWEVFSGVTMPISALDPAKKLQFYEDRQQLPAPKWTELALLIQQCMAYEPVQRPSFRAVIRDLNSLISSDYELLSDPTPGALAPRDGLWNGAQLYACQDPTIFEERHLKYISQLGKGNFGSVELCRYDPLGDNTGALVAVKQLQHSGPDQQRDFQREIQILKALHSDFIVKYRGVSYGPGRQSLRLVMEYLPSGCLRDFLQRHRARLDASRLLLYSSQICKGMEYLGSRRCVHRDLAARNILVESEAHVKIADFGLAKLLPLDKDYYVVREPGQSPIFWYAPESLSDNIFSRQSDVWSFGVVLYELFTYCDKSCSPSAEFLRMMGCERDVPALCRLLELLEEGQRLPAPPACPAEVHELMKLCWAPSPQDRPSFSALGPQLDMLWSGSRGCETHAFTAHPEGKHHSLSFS

[5] = target: Non-receptor tyrosine-protein kinase TYK2 (Homo sapiens, UniProt P29597); assay: Inhibition of TYK2 (unknown origin) after 20 mins by radiometric analysis in presence of [gamma33P]-ATP
[6] = target: Tyrosine-protein kinase JAK2 (Homo sapiens, UniProt O60674); assay: Inhibition of JAK2 (unknown origin) after 20 mins by radiometric analysis in presence of [gamma33P]-ATP
[7] = target: Tyrosine-protein kinase JAK1 (Homo sapiens, UniProt P23458); assay: Inhibition of JAK1 (unknown origin) after 20 mins by radiometric analysis in presence of [gamma33P]-ATP
Chain of Tyrosine-protein kinase JAK1 (P23458 whole entry, canonical isoform): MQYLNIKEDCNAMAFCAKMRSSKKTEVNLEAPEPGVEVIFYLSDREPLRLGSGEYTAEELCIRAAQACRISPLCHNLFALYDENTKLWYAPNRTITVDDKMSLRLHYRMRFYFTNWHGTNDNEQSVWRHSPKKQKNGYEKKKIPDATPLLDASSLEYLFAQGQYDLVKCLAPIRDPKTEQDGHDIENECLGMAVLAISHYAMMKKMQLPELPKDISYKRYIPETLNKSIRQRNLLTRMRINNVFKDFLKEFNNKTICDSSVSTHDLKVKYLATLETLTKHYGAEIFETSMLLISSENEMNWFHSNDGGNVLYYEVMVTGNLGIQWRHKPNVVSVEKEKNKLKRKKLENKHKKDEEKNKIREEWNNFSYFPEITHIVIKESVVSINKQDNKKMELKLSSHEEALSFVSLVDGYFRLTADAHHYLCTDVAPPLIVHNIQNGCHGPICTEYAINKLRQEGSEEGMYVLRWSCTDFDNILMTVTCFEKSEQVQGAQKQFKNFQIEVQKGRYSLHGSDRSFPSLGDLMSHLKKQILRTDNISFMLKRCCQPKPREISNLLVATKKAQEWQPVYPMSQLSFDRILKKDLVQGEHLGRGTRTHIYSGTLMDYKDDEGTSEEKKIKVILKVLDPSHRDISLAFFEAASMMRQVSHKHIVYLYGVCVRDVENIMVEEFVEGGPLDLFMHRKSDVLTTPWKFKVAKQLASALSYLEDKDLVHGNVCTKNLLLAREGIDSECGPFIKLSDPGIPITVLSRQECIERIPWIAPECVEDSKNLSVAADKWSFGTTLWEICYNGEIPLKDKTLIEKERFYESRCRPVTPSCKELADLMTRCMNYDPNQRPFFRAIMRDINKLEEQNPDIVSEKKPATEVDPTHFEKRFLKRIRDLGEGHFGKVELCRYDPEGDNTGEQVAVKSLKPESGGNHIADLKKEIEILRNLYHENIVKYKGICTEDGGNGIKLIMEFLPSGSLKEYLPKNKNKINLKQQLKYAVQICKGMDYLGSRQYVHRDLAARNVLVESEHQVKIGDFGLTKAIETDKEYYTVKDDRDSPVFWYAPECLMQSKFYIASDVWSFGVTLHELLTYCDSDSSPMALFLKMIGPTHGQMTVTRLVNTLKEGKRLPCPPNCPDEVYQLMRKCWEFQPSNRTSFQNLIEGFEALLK

[8] = target: Phosphatidylinositol 4,5-bisphosphate 3-kinase catalytic subunit gamma isoform (Homo sapiens, UniProt P48736); assay: Inhibition of recombinant human PI3Kgamma by TR-FRET analysis
Chain of Phosphatidylinositol 4,5-bisphosphate 3-kinase catalytic subunit gamma isoform (P48736 whole entry, canonical isoform): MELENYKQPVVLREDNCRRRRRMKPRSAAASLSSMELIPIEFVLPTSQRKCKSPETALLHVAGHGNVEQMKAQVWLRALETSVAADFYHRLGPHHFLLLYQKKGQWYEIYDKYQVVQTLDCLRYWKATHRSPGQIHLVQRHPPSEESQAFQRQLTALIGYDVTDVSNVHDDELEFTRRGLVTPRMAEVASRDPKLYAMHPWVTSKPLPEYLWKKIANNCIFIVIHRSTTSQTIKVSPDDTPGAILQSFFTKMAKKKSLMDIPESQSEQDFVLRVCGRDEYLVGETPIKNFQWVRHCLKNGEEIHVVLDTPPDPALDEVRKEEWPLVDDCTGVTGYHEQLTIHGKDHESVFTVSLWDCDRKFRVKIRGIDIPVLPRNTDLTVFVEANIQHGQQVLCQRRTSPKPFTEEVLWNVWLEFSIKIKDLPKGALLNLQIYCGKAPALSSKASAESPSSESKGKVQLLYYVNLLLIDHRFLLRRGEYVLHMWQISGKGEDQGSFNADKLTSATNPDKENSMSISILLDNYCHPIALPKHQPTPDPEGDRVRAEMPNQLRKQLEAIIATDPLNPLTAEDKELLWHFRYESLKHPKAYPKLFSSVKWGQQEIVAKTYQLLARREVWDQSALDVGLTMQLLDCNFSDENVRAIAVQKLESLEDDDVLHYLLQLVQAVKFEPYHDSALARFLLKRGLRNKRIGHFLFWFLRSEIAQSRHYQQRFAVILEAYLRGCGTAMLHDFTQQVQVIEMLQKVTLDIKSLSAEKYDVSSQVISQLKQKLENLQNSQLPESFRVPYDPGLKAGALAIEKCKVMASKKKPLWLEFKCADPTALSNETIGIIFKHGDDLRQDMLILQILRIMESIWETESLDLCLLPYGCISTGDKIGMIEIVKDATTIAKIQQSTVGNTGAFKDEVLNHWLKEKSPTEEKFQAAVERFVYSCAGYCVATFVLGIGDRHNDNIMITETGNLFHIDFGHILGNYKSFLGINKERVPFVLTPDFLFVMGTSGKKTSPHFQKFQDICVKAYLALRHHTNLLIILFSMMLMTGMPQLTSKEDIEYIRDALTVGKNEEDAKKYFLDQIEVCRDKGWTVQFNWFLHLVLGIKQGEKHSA

[9] = target: T4, Phosphatidylinositol 4,5-bisphosphate 3-kinase catalytic subunit delta isoform (Homo sapiens, UniProt O00329); assay: Inhibition of recombinant human PI3Kdelta by TR-FRET analysis
T4 sequence (O00329 whole entry): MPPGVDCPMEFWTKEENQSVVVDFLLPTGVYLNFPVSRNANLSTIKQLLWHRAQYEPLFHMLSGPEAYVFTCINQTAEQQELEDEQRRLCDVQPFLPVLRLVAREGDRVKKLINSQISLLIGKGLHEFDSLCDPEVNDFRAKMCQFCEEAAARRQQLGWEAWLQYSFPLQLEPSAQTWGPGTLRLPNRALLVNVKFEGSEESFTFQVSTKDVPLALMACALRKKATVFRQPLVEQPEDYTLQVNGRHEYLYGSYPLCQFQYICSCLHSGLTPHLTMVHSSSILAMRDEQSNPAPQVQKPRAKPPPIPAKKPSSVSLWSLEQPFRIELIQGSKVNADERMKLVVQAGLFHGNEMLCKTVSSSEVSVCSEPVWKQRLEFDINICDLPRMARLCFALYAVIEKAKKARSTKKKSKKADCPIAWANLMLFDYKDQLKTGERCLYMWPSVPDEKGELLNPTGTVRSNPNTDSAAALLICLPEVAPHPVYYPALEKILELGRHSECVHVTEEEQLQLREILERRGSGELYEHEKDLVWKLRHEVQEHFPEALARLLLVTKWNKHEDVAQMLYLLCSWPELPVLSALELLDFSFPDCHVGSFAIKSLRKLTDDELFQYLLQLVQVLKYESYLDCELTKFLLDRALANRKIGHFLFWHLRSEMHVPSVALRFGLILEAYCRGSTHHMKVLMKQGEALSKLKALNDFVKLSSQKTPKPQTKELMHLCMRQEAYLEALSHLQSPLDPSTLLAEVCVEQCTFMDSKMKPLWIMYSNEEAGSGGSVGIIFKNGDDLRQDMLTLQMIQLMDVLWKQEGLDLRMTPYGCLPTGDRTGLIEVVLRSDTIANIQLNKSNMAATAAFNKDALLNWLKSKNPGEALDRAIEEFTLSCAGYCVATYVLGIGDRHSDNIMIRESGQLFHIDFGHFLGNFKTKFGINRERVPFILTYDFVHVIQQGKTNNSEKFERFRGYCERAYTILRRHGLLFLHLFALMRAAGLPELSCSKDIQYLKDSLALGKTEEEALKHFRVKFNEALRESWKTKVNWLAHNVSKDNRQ

[10] = target: Serine/threonine-protein kinase mTOR (Homo sapiens, UniProt P42345); assay: Inhibition of recombinant human mTOR by TR-FRET analysis
[11] = target: Phosphatidylinositol 4,5-bisphosphate 3-kinase catalytic subunit beta isoform (Homo sapiens, UniProt P42338); assay: Inhibition of recombinant human PI3Kbeta by TR-FRET analysis
[12] = target: Histone deacetylase 5 (Homo sapiens, UniProt Q9UQL6)
Chain of Histone deacetylase 5 (Q9UQL6 whole entry): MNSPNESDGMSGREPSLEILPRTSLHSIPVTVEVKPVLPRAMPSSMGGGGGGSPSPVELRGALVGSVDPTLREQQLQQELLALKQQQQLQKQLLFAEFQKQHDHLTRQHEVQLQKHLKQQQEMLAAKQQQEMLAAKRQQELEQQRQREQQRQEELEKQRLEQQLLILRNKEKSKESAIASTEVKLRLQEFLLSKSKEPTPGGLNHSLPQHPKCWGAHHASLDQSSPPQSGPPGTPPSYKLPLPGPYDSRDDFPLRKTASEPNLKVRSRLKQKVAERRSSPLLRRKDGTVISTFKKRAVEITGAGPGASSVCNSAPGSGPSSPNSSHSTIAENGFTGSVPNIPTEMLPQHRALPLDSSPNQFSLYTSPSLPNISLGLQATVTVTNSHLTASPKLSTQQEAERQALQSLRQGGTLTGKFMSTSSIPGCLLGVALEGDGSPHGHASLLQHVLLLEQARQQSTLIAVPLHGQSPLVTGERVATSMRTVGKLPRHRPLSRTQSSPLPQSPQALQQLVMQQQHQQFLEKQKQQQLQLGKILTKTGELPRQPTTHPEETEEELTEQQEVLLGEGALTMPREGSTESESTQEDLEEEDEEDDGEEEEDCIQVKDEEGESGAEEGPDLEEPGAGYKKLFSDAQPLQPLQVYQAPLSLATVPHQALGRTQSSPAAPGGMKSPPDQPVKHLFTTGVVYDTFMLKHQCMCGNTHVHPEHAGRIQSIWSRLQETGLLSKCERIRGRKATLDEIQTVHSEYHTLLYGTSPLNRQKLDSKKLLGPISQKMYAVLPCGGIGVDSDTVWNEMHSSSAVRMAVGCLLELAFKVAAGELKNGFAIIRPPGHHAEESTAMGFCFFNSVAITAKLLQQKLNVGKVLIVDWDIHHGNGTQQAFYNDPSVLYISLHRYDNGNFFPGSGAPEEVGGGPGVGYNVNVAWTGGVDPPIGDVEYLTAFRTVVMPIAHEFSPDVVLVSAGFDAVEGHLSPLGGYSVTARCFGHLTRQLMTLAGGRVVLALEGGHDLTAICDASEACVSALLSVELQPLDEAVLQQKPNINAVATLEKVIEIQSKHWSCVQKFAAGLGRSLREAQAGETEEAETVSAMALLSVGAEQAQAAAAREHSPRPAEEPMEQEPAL
Description: Inhibition of HDAC5 in human HeLa nuclear extracts by fluorometric assay

[13] = target: T5, Protein deacetylase HDAC6 (Homo sapiens, UniProt Q9UBN7); assay: Inhibition of HDAC6 in human HeLa nuclear extracts by fluorometric assay
T5 sequence (Q9UBN7 whole entry): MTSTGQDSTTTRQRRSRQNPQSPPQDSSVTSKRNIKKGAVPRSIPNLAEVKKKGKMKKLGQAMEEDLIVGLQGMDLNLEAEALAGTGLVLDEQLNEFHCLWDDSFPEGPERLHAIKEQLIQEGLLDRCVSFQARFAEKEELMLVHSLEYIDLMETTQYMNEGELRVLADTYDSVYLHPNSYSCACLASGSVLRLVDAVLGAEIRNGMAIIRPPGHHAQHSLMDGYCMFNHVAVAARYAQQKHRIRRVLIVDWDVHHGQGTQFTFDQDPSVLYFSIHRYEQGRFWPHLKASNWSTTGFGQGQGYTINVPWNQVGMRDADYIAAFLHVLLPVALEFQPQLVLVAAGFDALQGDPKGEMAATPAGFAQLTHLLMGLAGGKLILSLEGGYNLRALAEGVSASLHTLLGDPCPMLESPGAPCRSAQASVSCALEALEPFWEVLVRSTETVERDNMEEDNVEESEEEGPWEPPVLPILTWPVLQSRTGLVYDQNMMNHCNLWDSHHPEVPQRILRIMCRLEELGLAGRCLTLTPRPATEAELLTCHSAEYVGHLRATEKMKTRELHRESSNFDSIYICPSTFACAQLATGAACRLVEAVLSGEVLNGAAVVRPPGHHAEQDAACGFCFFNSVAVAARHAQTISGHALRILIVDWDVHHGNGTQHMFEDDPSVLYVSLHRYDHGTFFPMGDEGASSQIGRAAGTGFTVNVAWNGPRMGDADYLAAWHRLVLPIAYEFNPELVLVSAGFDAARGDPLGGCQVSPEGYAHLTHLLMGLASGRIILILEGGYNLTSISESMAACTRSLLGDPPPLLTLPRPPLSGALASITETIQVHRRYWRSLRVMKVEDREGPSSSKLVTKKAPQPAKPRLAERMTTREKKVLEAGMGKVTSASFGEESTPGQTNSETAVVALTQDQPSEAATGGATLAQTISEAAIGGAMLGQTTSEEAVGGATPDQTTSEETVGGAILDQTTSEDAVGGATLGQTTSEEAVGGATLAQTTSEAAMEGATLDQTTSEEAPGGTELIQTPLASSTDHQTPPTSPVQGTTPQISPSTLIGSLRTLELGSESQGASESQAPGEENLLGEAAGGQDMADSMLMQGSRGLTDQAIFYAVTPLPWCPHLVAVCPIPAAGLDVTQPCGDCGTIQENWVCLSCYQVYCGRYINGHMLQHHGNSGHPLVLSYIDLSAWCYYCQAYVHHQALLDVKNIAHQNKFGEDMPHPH

[14] = target: Histone deacetylase 4 (Homo sapiens, UniProt P56524); assay: Inhibition of HDAC4 in human HeLa nuclear extracts by fluorometric assay
Chain of Histone deacetylase 4 (P56524 whole entry): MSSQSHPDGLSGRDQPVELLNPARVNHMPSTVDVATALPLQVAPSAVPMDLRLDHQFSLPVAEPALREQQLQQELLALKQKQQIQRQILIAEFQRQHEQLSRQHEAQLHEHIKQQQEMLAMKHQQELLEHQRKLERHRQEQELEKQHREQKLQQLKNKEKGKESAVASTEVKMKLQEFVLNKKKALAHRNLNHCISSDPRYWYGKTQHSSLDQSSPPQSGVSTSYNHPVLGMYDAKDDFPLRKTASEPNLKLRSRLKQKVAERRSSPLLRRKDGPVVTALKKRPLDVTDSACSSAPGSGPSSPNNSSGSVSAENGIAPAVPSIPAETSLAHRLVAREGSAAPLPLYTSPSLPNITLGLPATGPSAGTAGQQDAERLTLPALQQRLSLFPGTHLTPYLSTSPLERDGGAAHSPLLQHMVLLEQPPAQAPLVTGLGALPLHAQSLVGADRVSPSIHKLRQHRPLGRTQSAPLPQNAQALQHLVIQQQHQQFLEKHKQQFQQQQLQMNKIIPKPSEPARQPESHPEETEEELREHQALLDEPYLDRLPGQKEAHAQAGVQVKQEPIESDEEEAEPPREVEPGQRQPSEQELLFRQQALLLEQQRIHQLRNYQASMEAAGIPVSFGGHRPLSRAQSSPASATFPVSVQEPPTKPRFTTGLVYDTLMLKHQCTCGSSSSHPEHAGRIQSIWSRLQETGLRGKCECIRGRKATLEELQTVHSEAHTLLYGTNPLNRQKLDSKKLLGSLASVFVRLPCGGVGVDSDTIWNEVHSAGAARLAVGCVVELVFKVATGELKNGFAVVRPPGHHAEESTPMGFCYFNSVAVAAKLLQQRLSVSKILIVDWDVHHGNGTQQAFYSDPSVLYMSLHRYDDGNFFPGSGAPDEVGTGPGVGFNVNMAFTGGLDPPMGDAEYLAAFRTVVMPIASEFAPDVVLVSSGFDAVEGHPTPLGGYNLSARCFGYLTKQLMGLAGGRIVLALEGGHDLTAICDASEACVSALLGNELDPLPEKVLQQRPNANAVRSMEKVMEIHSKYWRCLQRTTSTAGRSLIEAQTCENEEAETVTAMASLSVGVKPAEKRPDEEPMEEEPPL

[15] = target: T6, Histone deacetylase 8 (Homo sapiens, UniProt Q9BY41); assay: Inhibition of HDAC8 in human HeLa nuclear extracts by fluorometric assay
T6 sequence (Q9BY41 whole entry): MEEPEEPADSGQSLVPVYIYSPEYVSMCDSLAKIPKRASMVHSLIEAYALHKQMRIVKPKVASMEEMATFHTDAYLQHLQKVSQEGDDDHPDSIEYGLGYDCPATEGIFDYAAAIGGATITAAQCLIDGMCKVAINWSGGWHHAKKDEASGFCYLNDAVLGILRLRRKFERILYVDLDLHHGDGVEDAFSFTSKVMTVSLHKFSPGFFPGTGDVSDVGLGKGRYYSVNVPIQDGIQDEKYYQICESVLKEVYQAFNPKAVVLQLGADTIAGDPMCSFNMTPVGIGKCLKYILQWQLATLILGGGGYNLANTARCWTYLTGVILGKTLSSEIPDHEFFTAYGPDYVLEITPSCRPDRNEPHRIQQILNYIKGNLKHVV

N[C@@H]1C[C@H]1c1ccc(OCC[C@H](NC(=O)c2ccccc2)C(=O)NCc2ccccc2)cc1
IC50 [1]: 290 µM | IC50 [2]: > 1000 µM

O=C(N[C@@H](CCCCNC1CC1c1ccccc1)C(=O)NCc1ccccc1)c1ccccc1 (stereo partly drawn)
IC50 [3]: > 25 µM

c1nc(-c2cn(CC3CO3)nn2)c2cc[nH]c2n1 (stereo not drawn)
IC50 [4]: 35 nM | IC50 [5]: 5.62 µM | IC50 [6]: 2450 nM | IC50 [7]: 2730 nM

C[C@@H]1COCCN1c1cc(=O)n2c(n1)N(Cc1cncc(Cl)c1)[C@H](C(F)(F)F)CC2
IC50 [8]: > 10 µM | IC50 [9]: > 10 µM | IC50 [10]: > 10 µM | IC50 [11]: > 10 µM

NC1CC1c1cccc(OCC[C@H](NC(=O)c2ccccc2)C(=O)NCc2ccccc2)c1 (stereo partly drawn)
IC50 [1]: 230 µM | IC50 [2]: 500 µM

Nc1ccccc1NC(=O)c1ccc(-c2cn(CCc3cccc([N+](=O)[O-])c3)nn2)s1
IC50 [12]: > 100 µM

Nc1ccccc1NC(=O)c1ccc(-c2cn(CCc3ccsc3)nn2)cc1
IC50 [13]: > 100 µM | IC50 [14]: > 100 µM | IC50 [15]: > 100 µM | IC50 [12]: > 100 µM
